The values below come from the NIST ThermoML archive (doi:10.1016/j.fluid.2008.02.007).

The conditions of this series: Crystal; visual observation.

Numbers after ± are expanded uncertainties.

Take `O=C(O)c1ccc([N+](=O)[O-])cc1` [4-nitrobenzoic acid]: the Normal melting temperature stood at 240 ± 0.5 °C. Regarding `O=C(O)c1ccccc1[N+](=O)[O-]` [2-nitrobenzoic acid], the Normal melting temperature was determined as 147.7 ± 0.5 °C.
